How the values were obtained:
[1] = test system: lens elasticity; assay: Pharmacological Test-5: lens elasticity, once-daily instillation for 1 week; type: in vivo, C57BL/6J mice
Method: The effect of once-daily instillation of Compound for 1 week on the lens elasticity was examined.
Compound 1 was stirred with the addition of Vehicle C to give a 0.1% (w/v) solution. A 0.03% […] solution and a 0.01% (w/v) solution were prepared in the same manner.
1) Each test sample (2.5 μL/eye) was instilled into both eyes of 9-month-old C57BL/6J mice with a Pipetman once per day (around 9:00) for 7 days. 2) After the final instillation, the mice were euthanized by carbon dioxide inhalation, and then the eyeballs were extracted and rinsed with Hank's balanced salt solution (HBSS). 3) The sclera near the optic nerve was cut with a razor, the lens was removed through the incision, and the removed lens was immersed in HESS. 4) The lens was placed on a glass slide, and an all-in-one fluorescence microscope BZ-9000 (Keyence) was used to capture an image of the lens (Image a). 5) Next, one cover glass (Corning^(registered trade mark) 22×22 mm Square) was placed on the lens, and an image in which the thickness of the lens changed due to the weight was similarly captured (Image b). 6) A change in the lens diameter was calculated from the following Equation 1 wherein the lens diameter of Image a is subtracted from the lens diameter of Image b. Then, the lens elasticity improvement of each sample group compared with the vehicle control group was calculated from Equation 2 described below. The mean value of the vehicle control group was based on 10 eyes, the mean values of Compound 1 sample group were based on 10 eyes.
(§1) Change in lens diameter=Lens diameter in Image b of each test sample−Lens diameter in Image a of each test sample (Equation 1)
(§2) Lens elasticity improvement of each sample group=Mean change in lens diameter of each Test sample group−Mean change in lens diameter of Vehicle control group (Equation 2)

[2] = test system: lens elasticity; assay: Pharmacological Test-3: lens elasticity, Compounds 5 and 6, 3 times per day for 14 days; type: in vivo,  mice
Method: The effects of Compounds 5 and 6 on the lens elasticity were investigated.
Compound 5 was stirred with the addition of Vehicle C to give a 0.03% (w/v) solution.
Compound 6 was stirred with the addition of Vehicle C to give a 0.03% (w/v) solution.
EV06 was stirred with the addition of Vehicle C to give a 0.03% (w/v) solution, which was used for comparison to the samples of Compounds 5 and 6.
1) Each test sample (2.5 μL/eye) was instilled into both eyes of 9-month-old […] mice with a Pipetman 3 times per day (around 9:00, 13:00 and 17:00) for 14 days. 2) After the final instillation, the mice were euthanized by carbon dioxide inhalation, and then the eyeballs were extracted and rinsed with Hank's balanced salt solution (HESS). 3) The sclera near the optic nerve was cut with a razor, the lens was removed through the incision, and the removed lens was immersed in HESS. 4) The lens was placed on a glass slide, and an all-in-one fluorescence microscope BZ-9000 (Keyence) was used to capture an image of the lens (Image a). 5) Next, one cover glass (Corning^(registered trade mark) 22×22 mm Square) was placed on the lens, and an image in which the thickness of the lens changed due to the weight was similarly captured (Image b). 6) A change in the lens diameter was calculated from the following Equation 1 wherein the lens diameter of Image a is subtracted from the lens diameter of Image b. Then, the lens elasticity improvement of each sample group compared with the vehicle control group was calculated from Equation 2 described below. The mean value of the vehicle control group was based on 8 eyes, and the mean value of each of the sample groups of Compounds 5 and 6 and EV06 was based on 10 eyes.
as §1, §2

Row | Structure (SMILES) | Lens elasticity improvement ([1]; 0.01% (w/v) solution in Vehicle C, both eyes, once per day for 7 days, 9-month-old mice) [μm] | Lens elasticity improvement ([1]; 0.03% solution in Vehicle C, both eyes, once per day for 7 days, 9-month-old mice) [μm] | Lens elasticity improvement ([1]; 0.1% (w/v) solution in Vehicle C, both eyes, once per day for 7 days, 9-month-old mice) [μm] | Lens elasticity improvement ([1]; concentration of 0.1%, once-daily for 1 week) | Lens elasticity improvement ([2]; 0.03% (w/v) solution in Vehicle C, both eyes, 3 times per day for 14 days, 9-month-old mice) [μm] | lens elasticity improving effect ([2]; at a concentration of 0.03%)
1 | CC(C)=CCOC(=O)CCCC[C@@H]1CCSS1 [Compound 1, 3-Methyl-2-buten-1-yl (R)-5-(1,2-dithiolan-3-yl)pentanoate] | 10.6 | 20.3 | 60.1 | potent lens elasticity improvement |  | 
2 | C[N+](C)(C)CCOC(=O)CCCC[C@@H]1CCSS1.[Cl-] [EV06, Lipoic acid choline ester, reference compound] |  |  |  |  | 3.6 | did not show lens elasticity improving effect

Source: US20220151989A1, “LIPOIC ACID PRODRUG” (SANTEN PHARMACEUTICAL CO., LTD., priority 2019, published 2022)
